Assay results as given in the supplement of paper PMC10307832.

What was measured:
Experiment in all cases: relative viability (nuclei count vs DMSO), 5 days (fraction); higher = more cells survive
Motesanib + Foretinib = compound: CC1(C)CNc2cc(NC(=O)c3cccnc3NCc3ccncc3)ccc21 [Motesanib] + COc1cc2c(Oc3ccc(NC(=O)C4(C(=O)Nc5ccc(F)cc5)CC4)cc3F)ccnc2cc1OCCCN1CCOCC1 [Foretinib] (partner 0.25 µM)
In short: (§1)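 For relative viability, nuclei counts in treated wells were divided by those in vehicle wells. Lung cancer cell lines had been pin-tool dosed in 1536-well plates the day after seeding and cultured for 5 days, then fixed and stained in one step (final 0.05% Triton X-100, 1% formaldehyde, 1 ug/ml Hoechst) and imaged at 4×. Doses were one drug alone or a fixed anchor-drug dose plus five library-drug doses (not always all listed) in √10 steps, and values are duplicate-plate medians.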

Motesanib + Pictilisib = compound: CC1(C)CNc2cc(NC(=O)c3cccnc3NCc3ccncc3)ccc21 [Motesanib] + CS(=O)(=O)N1CCN(Cc2cc3nc(-c4cccc5[nH]ncc45)nc(N4CCOCC4)c3s2)CC1 [Pictilisib] (partner 1 µM)
In short: as §1

[1] = compound: C[C@@]1(C(=O)Nc2ccc(F)nc2)CCCN1c1nc(Nc2cc(C3CC3)n[nH]2)c2cccn2n1 + Cc1cc(Nc2cc(N3CCN(C)CC3)nc(Sc3ccc(NC(=O)C4CC4)cc3)n2)n[nH]1 [Tozasertib] (partner 0.1 µM)
In short: as §1

[2] = compound: C[C@@]1(C(=O)Nc2ccc(F)nc2)CCCN1c1nc(Nc2cc(C3CC3)n[nH]2)c2cccn2n1 + O=C(c1cc(Cc2n[nH]c(=O)c3ccccc23)ccc1F)N1CCN(C(=O)C2CC2)CC1 [Olaparib] (partner 8 µM)
In short: as §1

Cell Line | relative viability (Motesanib + Foretinib; first compound 0.01 µM) | relative viability (Motesanib + Foretinib; first compound 0.03162 µM) | relative viability (Motesanib + Foretinib; first compound 0.1 µM) | relative viability (Motesanib + Foretinib; first compound 0.3162 µM) | relative viability (Motesanib + Foretinib; first compound 1 µM) | relative viability (Motesanib + Pictilisib; first compound 0.01 µM) | relative viability (Motesanib + Pictilisib; first compound 0.03162 µM) | relative viability (Motesanib + Pictilisib; first compound 0.1 µM) | relative viability (Motesanib + Pictilisib; first compound 0.3162 µM) | relative viability (Motesanib + Pictilisib; first compound 1 µM) | relative viability ([1]; first compound 0.04 µM) | relative viability ([1]; first compound 0.1265 µM) | relative viability ([1]; first compound 0.4 µM) | relative viability ([1]; first compound 1.265 µM) | relative viability ([2]; first compound 0.04 µM) | relative viability ([2]; first compound 0.1265 µM) | relative viability ([2]; first compound 0.4 µM) | relative viability ([2]; first compound 1.265 µM)
NCI-H3122 | 0.951 | 0.938 | 0.821 | 1.01 | 0.986 | 0.46 | 0.534 | 0.618 | 0.626 | 0.667 | 0.373 | 0.541 | 0.219 | 0.306 | 0.633 | 0.571 | 0.581 | 0.723
NCI-H1975 | 0.978 | 0.9 | 0.908 | 0.898 | 0.899 | 0.312 | 0.282 | 0.313 | 0.352 | 0.31 | 0.682 | 0.646 | 0.513 | 0.316 | 0.653 | 0.749 | 0.626 | 0.476
NCI-H1944 | 0.959 | 0.916 | 0.861 | 0.967 | 0.988 | 0.322 | 0.342 | 0.399 | 0.379 | 0.364 | 0.251 | 0.239 | 0.203 | 0.245 | 0.413 | 0.394 | 0.362 | 0.492
LU99A | 0.795 | 0.813 | 0.734 | 0.898 | 0.89 | 0.348 | 0.327 | 0.309 | 0.386 | 0.352 | 0.237 | 0.222 | 0.234 | 0.182 | 0.292 | 0.227 | 0.231 | 0.276
SW 1573 | 0.772 | 0.905 | 0.93 | 0.936 | 1.08 | 0.479 | 0.437 | 0.617 | 0.54 | 0.563 | 0.15 | 0.16 | 0.172 | 0.182 | 0.38 | 0.409 | 0.341 | 0.253
NCI-H2347 | 0.85 | 0.429 | 1.14 | 0.614 | 1.86 | 0.476 | 0.803 | 0.382 | 0.456 | 0.678 | 0.606 | 0.581 | 0.512 | 0.502 | 0.536 | 0.569 | 0.48 | 0.524
NCI-H2009 | 1.23 | 1.21 | 1.23 | 1.22 | 1.21 | 0.734 | 0.732 | 0.818 | 0.827 | 0.873 | 0.779 | 0.693 | 0.598 | 0.519 | 0.718 | 0.657 | 0.726 | 0.663
HCC-15 | 0.984 | 0.838 | 1.01 | 1.17 | 1.11 | 0.786 | 0.729 | 0.653 | 0.848 | 0.747 | 0.403 | 0.337 | 0.119 | 0.169 | 0.663 | 0.614 | 0.611 | 0.635
HCC-44 |  |  |  |  |  | 0.672 | 0.611 | 0.891 | 0.673 | 0.474 | 0.858 | 0.616 | 0.574 | 0.362 | 0.94 | 0.879 | 0.867 | 0.911
COR-L23 | 0.993 | 1.06 | 0.992 | 0.964 | 0.955 | 0.701 | 0.864 | 0.732 | 0.836 | 0.854 | 0.195 | 0.23 | 0.131 | 0.107 | 0.315 | 0.367 | 0.234 | 0.188
HCC-78 | 0.665 | 0.637 | 0.507 | 0.514 | 0.678 | 0.182 | 0.198 | 0.174 | 0.207 | 0.182 | 0.37 | 0.27 | 0.308 | 0.33 | 0.661 | 1.12 | 0.375 | 0.427
NCI-H1299 | 1.06 | 1.11 | 1.11 | 1.16 | 1.12 | 0.59 | 0.828 | 0.825 | 0.845 | 0.845 |  |  |  |  | 0.976 | 0.97 | 0.887 | 0.964
NCI-H727 | 0.707 | 0.98 | 0.854 | 1.09 | 0.883 | 0.324 | 0.369 | 0.463 | 0.464 | 0.379 | 0.525 | 0.355 | 0.352 | 0.379 | 0.746 | 0.506 | 0.476 | 0.416
SW 900 | 0.824 | 0.9 | 1.36 | 0.887 | 0.874 |  |  |  |  |  | 0.525 | 0.551 | 0.464 | 0.29 | 1.02 | 0.895 | 0.721 | 0.717
NCI-H1563 | 0.904 | 0.899 | 0.915 | 0.909 | 0.889 | 0.65 | 0.645 | 0.68 | 0.64 | 0.678 |  |  |  |  |  |  |  | 
A549 | 0.88 | 0.942 | 1.02 | 0.944 | 1.03 | 0.515 | 0.478 | 0.504 | 0.574 | 0.57 |  |  |  |  | 0.293 | 0.17 | 0.148 | 0.244
NCI-H2342 | 1.03 | 1.09 | 1.12 | 1.1 | 0.971 |  |  |  |  |  | 0.534 | 0.453 | 0.346 | 0.499 | 0.438 | 0.449 | 0.336 | 0.329
NCI-H1623 | 0.869 | 0.889 | 0.763 | 0.871 | 0.873 |  |  |  |  |  | 0.391 | 0.397 | 0.349 | 0.371 |  |  |  | 
NCI-H522 |  |  |  |  |  |  |  |  |  |  | 0.571 | 0.459 | 0.537 | 0.562 | 0.66 | 0.588 | 0.615 | 0.596
IA-LM | 1.12 | 1.1 | 1.23 | 1.07 | 1.19 | 0.38 | 0.346 | 0.351 | 0.318 | 0.519 |  |  |  |  | 0.835 | 0.81 | 0.658 | 0.719
EBC-1 | 0.1 | 0.0945 | 0.109 | 0.111 | 0.132 | 0.503 | 0.366 | 0.302 | 0.385 | 0.335 |  |  |  |  | 0.695 | 0.666 | 0.61 | 0.391
